Laboratory results published in patent US10774064B2 (Cadent Therapeutics, Inc., priority 2016, dated 2020).

Target: T1, small-conductance Ca2+-activated K+ channels (SK channels, subtype 2) (Homo sapiens, UniProt Q9H2S1)
T1 construct: expressed in transfected cells; host or cells: HEK293
Test: whole-cell patch-clamp of ionic current through SK2 channels in HEK293 cells (SC100)
Type: cell-based
Conditions: concentration that increases the basal current by 100%; HEK293 cells expressing SK2 channels
How it was run: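 Whole-cell patch-clamp recording of current in HEK293 cells expressing SK2 channels. SC100 is the compound concentration that increases basal current by 100%.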

Structure (SMILES)	SC100
Cc1ccn(-c2nc(NCC3(N(C)C)CCC3)cc(NC3CCC(F)(F)CC3)n2)n1 [Compound 157, N4-(4,4-difluorocyclohexyl)-N6-((1-(dimethylamino)cyclobutyl)methyl)-2-(3-methyl-1H-pyrazol-1-yl)pyrimidine-4,6-diamine]	++ (++ means 200 nM-1000 nM)
Cc1cc(C)n(-c2nc(NC3CCC(F)(F)CC3)cc(NC3CCN(C)C3=O)n2)n1 (stereo not drawn) [Compound 125, 3-((6-((4,4-difluorocyclohexyl)amino)-2-(3,5-dimethyl-1H-pyrazol-1-yl)pyrimidin-4-yl)amino)-1-methylpyrrolidin-2-one]	+ (+ means >1 uM)
Cc1cc(C)n(-c2cc(CF)cc(NC3CCC(F)(F)CC3)n2)n1 [Compound 229, N-(4,4-difluorocyclohexyl)-6-(3,5-dimethyl-1H-pyrazol-1-yl)-4-(fluoromethyl)pyridin-2-amine]	++ (++ means 200 nM-1000 nM)
Cc1ccn(-c2cc(S(C)(=O)=O)cc(NC3CCC(F)(F)CC3)n2)n1 [Compound 153, N-(4,4-difluorocyclohexyl)-6-(3-methyl-1H-pyrazol-1-yl)-4-(methylsulfonyl)pyridin-2-amine]	+ (+ means >1 uM)
Cc1cc(C)n(-c2nc3c(c(NC4CCC(F)(F)CC4)n2)CCN(C(C)C)C3)n1 [Compound 123, N-(4,4-difluorocyclohexyl)-2-(3,5-dimethyl-1H-pyrazol-1-yl)-7-isopropyl-5,6,7,8-tetrahydropyrido[3,4-d]pyrimidin-4-amine]	+ (+ means >1 uM)
Cc1cc(C)n(-c2nc(NC3CCC(F)(F)CC3)cc(NC3COC3)n2)n1 [Compound 243, N4-(4,4-difluorocyclohexyl)-2-(3,5-dimethyl-1H-pyrazol-1-yl)-N6-(oxetan-3-yl)pyrimidine-4,6-diamine]	+ (+ means >1 uM)

Same assay, conditions: whole-cell patch-clamp, HEK293 cells expressing SK2 channels; concentration that increases the basal current by 100%

Structure (SMILES)	SC100 (μM)
COC(=O)N1CC(Oc2cc(N(C)C3CCC(F)(F)CC3)nc(-c3nc(C)cs3)n2)C1 [NSSy6105, methyl 3-((6-((4,4-difluorocyclohexyl) (methyl)amino)-2-(4-methylthiazol-2-yl)pyrimidin-4-yl)oxy) azetidine-1-carboxylate]	+ (+ means >1 uM)
Cc1cc(C)n(-c2ncc(N3CCOCC3)c(NC3CCC(F)(F)CC3)n2)n1 [IN10966-011-P1, N-(4,4-difluorocyclohexyl)-2-(3,5-dimethyl-1H-pyrazol-1-yl)-5-morpholinopyrimidin-4-amine]	+ (+ means >1 uM)
CC(=O)c1cc(NC2CCC(F)(F)CC2)nc(-n2ccc(C)n2)n1 [IN10876-041-P2]	+ (+ means >1 uM)
CC(=O)N1CCC(c2cc(NC3CCC(F)(F)CC3)nc(-n3ccc(C4CC4)n3)n2)CC1 [IN11166-042-P1, 1-(4-(2-(3-cyclopropyl-1H-pyrazol-1-yl)-6-((4,4-difluorocyclohexyl)amino)pyrimidin-4-yl)piperidin-1-yl)ethan-1-one]	++ (++ means 200 nM-1000 nM)
COC(=O)N1CC(Oc2cc(NC3CCC(F)(F)CC3)nc(-c3csc(C)n3)n2)C1 [NSSy6132]	+ (+ means >1 uM)
COc1cc(NC2CCC(F)CC2)nc(-n2nc(C)cc2C)n1 (stereo not drawn) [IN11055-079-P1]	+ (+ means >1 uM)
COC(=O)N1CCN(c2cc(-n3ccc(C)n3)nc(NC3CCC(F)(F)CC3)n2)CC1 [NSSy6924, methyl 4-(2-((4,4-difluorocyclohexyl)amino)-6-(3-methyl-1H-pyrazol-1-yl)pyrimidin-4-yl)piperazine-1-carboxylate]	++ (++ means 200 nM-1000 nM)
Cc1ccn(-c2nc(N3CCCCC3)cc(N3CCOC(CO)C3)n2)n1 (stereo not drawn) [IN10882-072-P1, (4-(2-(3-methyl-1H-pyrazol-1-yl)-6-(piperidin-1-yl)pyrimidin-4-yl)morpholin-2-yl) methanol]	+ (+ means >1 uM)
CC(=O)N1CC=C(c2cc(NC3CCC(F)(F)CC3)nc(-n3ccc(C4CC4)n3)n2)CC1 [IN11166-038-P1, 1-(4-(2-(3-cyclopropyl-1H-pyrazol-1-yl)-6-((4,4-difluorocyclohexyl)amino)pyrimidin-4-yl)-3,6-dihydropyridin-1(2H)-yl)ethan-1-one]	+++ (+++ means <200 nM)
